We go through one compound from patent US20040266811A1, “Methods for inducing regeneration, remyelination, and hypermyelination of nervous tissue” (priority 2002, published 2004).

Test [1] concerns TrkA-overexpressing PC12 cells. The experiment in a line: Schwann cell conditioned media on TrkA-overexpressing PC12 cells. The test is classed as cell-based. Conditions: Schwann cells 1 μM GM-284 48 h; CM on PC12 72 h. On the procedure:
Wild-type and TrkA-overexpressing PC12 cells (Hempstead et al., Overexpression of the trk tyrosine kinase rapidly accelerates nerve growth factor-induced differentiation. Neuron, 9:883-96, 1992) were maintained in DMEM supplemented with 10% calf serum and 5% horse serum, the latter of which was also supplemented with 200 μg/ml G418 to maintain TrkA selection. Cultures were treated with 100 ng/ml NGF or the immunophilin ligands, or treated with Schwann-cell-conditioned medium supplemented with 5% horse serum, as indicated below. To generate GFP-expressing PC12 cells, a bicistronic pCX-bsr retroviral vector (Escalante et al., Phosphorylation of c-Crk II on the negative regulatory Tyr222 mediates nerve growth factor-induced cell spreading and morphogenesis. J. Biol. Chem., 275:24787-797, 2000), which drives expression of green fluorescent protein (GFP), was used to infect dividing PC12 cells.
To more directly examine the involvement of Schwann cells in mediating the neuritogenic capacities of GM-284, PC12 cells were infected with GFP-expressing retrovirus, and co-cultured on monolayers of Schwann cells, in the presence of either NGF, GM-284, or vehicle, for 48 h (FIG. 4B, panels a-c). […]

Test [2] relates to crushed sciatic nerve. Nature of the test: Sciatic nerve crush and regeneration (electron microscopy morphometry). The test is classed as in vivo, adult, outbred ICR mice. As to the method:
(A) The sciatic nerves of adult, outbred ICR mice were crushed, as previously described (Gondre et al., Accelerated nerve regeneration mediated by Schwann cells expressing a mutant form of the POU protein SCIP. J. Cell Biol., 141:493-501, 1998). Following the surgery, the animals were randomized into treatment groups of either GM-284 (10 mg/kg) or vehicle. At the end of 30 days, the animals were sacrificed, their sciatic nerves were prepared for electron microscopy, and subsequently evaluated for the extent of both axonal and myelin regeneration. All sampling was done at the same proximal-distal levels, and approximately 5 mm below the crush site. […] (B) Quantitative analysis of both axonal and myelin growth in response to GM-284 treatment was carried out by digitizing the images in (A), and determining the axonal and myelin volumes, calculated in voxels.
Mice were anesthetized (i.p.) with 0.5 cc of 2.5% Avertin/saline, before perfusion via the left ventricle. The animals were perfused for 30 min at 37° C., with a rat Ringer's solution containing heparin (2.0 ml/L; stock=10,000 units/ml) and 2% lidocaine (3.0 ml/L), followed by perfusion for 7-10 min with 2% glutaraldehyde/1% paraformaldehyde in 0.15 M sodium cacodylate, pH 7.2. Approximately 1 cm of sciatic nerve was dissected from the hind leg (from the hip to the knee), and split into 3 sections (proximal, medial, and distal). A 2-mm length was taken from each of the three sections, then immersion fixed. The primary fixation was carried out for 2-4 h total, at 4° C., with 2% glutaraldehyde/1% paraformaldehyde in 0.15 M sodium cacodylate buffer, pH 7.2. Tissues were rinsed 6 times, for 20 min each, then rinsed overnight at 4° C. in 0.15 M sodium cacodylate buffer, pH 7.2.
Secondary fixation was carried out for 4 h at 4° C. in 1% osmium-tetroxide/1.5% potassium-ferrocyanide in 0.15 M sodium cacodylate buffer, pH 7.2. Tissues were rinsed 3 times, for 10 min each, in Millipore-filtered water at 4° C., then stained en bloc in 2% uranyl acetate (aq) at 4° C. for 1 h. At this point, the tissues were dehydrated once for 8 min in a graded ethanol series starting with water, 30%, 50%, 70%, 95%, and then dehydrated twice, for 10 min each, in 100% ethanol and then in propylene oxide. After dehydration, the nerve tissue was infiltrated with propylene oxide/Durcupan (Fluka Chemika-BioChemika, Ronkonkoma, N.Y.), in a 25/75 ratio, for 60 min at room temperature. This was followed by infiltration three times, for 120 min each, in Durcupan resin at room temperature. Sciatic nerves were flat-embedded in fresh Durcupan resin, and polymerized for 24-36 h at 65° C. 1-μM-thick sections were stained with Toluidine blue. Silver sections were cut on a Diatome diamond knife, and stained with 2% uranyl acetate for 30 min at room temperature, and with Reynold's lead citrate for 7 min. Thin sections were viewed at 60 kv, and photographed on a JEOL 100 CX conventional transmission electron microscope.
Deep anesthesia was obtained with i.p. injection of Avertin. Electrophysiology recordings were obtained, as previously described (Bieri et al., Abnormal nerve conduction studies in mice expressing a mutant form of the POU transcription factor SCIP. J. Neurosci. Res., 50:821-28, 1997). Immediately afterward, the right sciatic nerve of each animal was exposed and crushed 2 times, for 30 sec each, using a #5 Dumont forceps. In brief, the skin was prepped bilaterally prior to electrophysiologic testing. […]

The mark [3] stands for this setting: 10 mg/kg daily, one month after crush.

Where “and” joins values, the source holds several entries; their conditions need not be identical. Identical values can stand only once. Entries after “also recorded” stand apart in the source; their conditions may differ.

For the compound `CCC(C)(C)C(=O)C(=O)N1CCC[C@H]1c1nnc([C@@H]2CCCN2C(=O)C(=O)C(C)(C)CC)o1` [GM-284], the “neurite outgrowth induced by conditioned media from treated Schwann cells” value in test [1] was “promoted significant neurite outgrowth; also recorded: Neurite promotion was observed only in the GM-284-treated Schwann cells' conditioned media”. In test [2] (setting [3]), the “increase in myelin (volume in voxels)” value is reported as roughly 3 fold; the “increase in the size of myelinated axons” value was 3- to 4 fold and 4 fold. Also, the “histology of regenerated sciatic nerve” value in test [2] (10 mg/kg daily, one month after crush, electron microscopy) is “induced both axonal hypertrophy and a global over-elaboration of the myelin organelle; also recorded: enhanced axonal regeneration; also recorded: clear axonal hypertrophy, as well as hypermyelination; also recorded: hypermyelination and axonal hypertrophy”. Moreover, in test [2] (GM-284-treated group, NIH Image), the “ratio of axonal volume to myelin volume” value came out at 0.2. The “increase in myelin volume, relative to each axon” value in test [2] (vs vehicle, p<0.0001) is 20 fold.
